Test results taken from US9284297B2, “Halofuginone analogs for inhibition of tRNA synthetases and uses thereof” (President and Fellows of Harvard College, priority 2008, dated 2016).

Assays:
[1] = tested on: CD4+ CD25− T cells (Th1, Th2, iTreg differentiation, proliferation, CD25), CD8+ T cells, B cells; test: T and B cell activation, proliferation and Th1, Th2, iTreg differentiation; assay type: cell-based, murine; details: polarizing cytokine conditions; IFNγ, IL-4, Foxp3 expression
Description: Cytokines secreted into media supernatant were measured using the mouse Th1/Th2 cytometric bead array (CBA—BD Pharmingen) in accordance with manufacturers instructions.

[2] = tested on: Th17 differentiation of CD4+ CD25− T cells; test: Th17 differentiation of CD4+ CD25− T cells (IL-17+ IFNγ− cells, intracellular cytokine staining); details: activated in the presence of TGFβ plus IL-6, intracellular cytokine staining day 4
[3] = tested on: eIF2α phosphorylation and ATF4 protein levels in CD4+ CD25− T cells; test: Amino acid response (AAR) pathway activation in T cells, western blot; assay type: cell-based, mice; details: 4 hours
Description: CD4+ CD25− T cells purified from wild type of GCN2−/− mice were activated through TCR for 4 hours in the presence of halofuginone (10 nM) or 9 (MAZ1310, 10 nM). Whole cell lysates were analyzed by SDS PAGE/Western blot and antibodies indicated.
Naïve T-cells were treated to stimulate the T-cell receptor (TCR) in the presence or absence of 10 nM halofuginone in the presence of 1 mM added amino acid, and then assayed for eIF2alpha activity phosphorylation by SDS PAGE/Western blot.
HF induced detectable eIF2α phosphorylation at 2.5 nM, and this effect plateaued at 5-10 nM HF (FIG. 7D). […] AAR activation was a general consequence of HF treatment; HF induced eIF2α phosphorylation, not only in T cells activated in Th17-priming conditions, but also in resting naïve T cells and T cells activated in ThN, Th1, Th2, and iTreg polarizing conditions (FIG. 7F). […] Thus, the rapid activation of the AAR pathway by HF could underlie both its selective inhibition of Th17 differentiation and its effects on fibroblasts (Pines and Nagler, Gen. Pharmacol. 30:445, 1998).
To delineate the stress response pathway activated by HF, the effects of amino acid starvation with those of tunicamycin (an inducer of ER stress) or HF treatment during T cell activation were compared.
Whole cell lysates were generated from T cells activated for the indicated times. For STAT3 and Smad2/3 western blots cells were harvested, washed in PBS and lysed in 50 mM Tris, pH 7.4, 0.1% SDS, 1% Triton-X100, 140 mM NaCl, 1 mM EDTA, 1 mM EGTA supplemented with protease inhibitors tablets (Roche, Germany), 1 mM NaF and 1 mM Na3VO4. For eIF2α and ATF4 western blots, cells were harvested as above and lysed in 50 mM Tris, pH 7.4, 2% SDS, 20% glycerol and 2 mM EDTA supplemented with protease and phosphatase inhibitors as above. All lysates were cleared via centrifugation and 15-30 μg of protein was resolved by SDS-PAGE. Protein was transferred to nitrocellulose membranes, blocked and blotted using specific antibodies. Antibodies used for western blot analysis were anti-phospho-Smad2, anti-STAT3 (pY705), anti-STAT3, anti-eIF2α^pS51, anti-eIF2α (all from Cell Signaling Technology, Danvers, Mass.). Anti-ATF4/CREB2 and anti-β-actin were purchased from Santa Cruz Biotechnology (Santa Cruz, Calif.). HRP-conjugated secondary antibodies were all purchased from Sigma, with the exception of HRP-conjugated anti-armenian hamster antibody (Jackson Immunoresearch, West Grove, Pa.).

[4] = tested on: translation of luciferase RNA in rabbit reticulocyte lysate; test: Translation of a luciferase RNA reporter in rabbit reticulocyte lysate; assay type: biochemical; set-up: key to Translational inhibition: “+++” vs. “++” vs. “+” in general denotes ˜4-fold differences in potency; “+++” vs. “++” vs. “+” in general denotes ˜4-fold differences in potency; “+++” vs. “++” vs. “+” in general denotes ˜4-fold differences in potency; “−” denotes no activity at any dose tested, up to 1000× the effective dose of halofuginone; details: luciferase RNA reporter
Description: To distinguish these possibilities, the effect of halofuginone on protein translation was examined in an in vitro system (rabbit reticulocyte lysate) in which amino acids are already present at levels adequate to support protein synthesis. […] Distinct tRNA synthetases catalyze the charging of individual tRNA species with their cognate amino acid. To determine which tRNA synthetase is inhibited by halofuginone, several amino acid mixtures were added to the in vitro translation system to determine which, if any, could reverse the inhibition of translation by halofuginone (FIG. 3). […] To examine whether proline could specifically rescue the effect of halofuginone in intact cells, the ability of each amino acid to reverse the effect of halofuginone on eIF2alpha phosphorylation in T-cells or to prevent halofuginone inhibition of Th17 differentiation was tested (FIG. 4). […] Inhibition of EPRS with compounds of the current invention can inhibit Th17 differentiation.
Translation in vitro was performed using rabbit reticulocyte lysates and luciferase mRNA as template. Translation was measured as arbitrary units of luciferase activity using a luminometer based luminescence assay. Log scale presentation of background-subtracted data is shown.
Inhibition of translation of luciferase RNA by halofuginone and analogs thereof was measured as described in FIG. 3 above. Results are shown of translation of a luciferase RNA reporter in a rabbit reticulocyte lysate. “+++” vs. “++” vs. “+” in general denotes ˜4-fold differences in potency. “−” denotes no activity at any dose tested, up to 1000× the effective dose of halofuginone.

[5] = tested on: Human primary dermal fibroblasts; test: Inhibition of cell spreading in a fibroblast model; assay type: cell-based; set-up: key: “+++” vs. “++” vs. “+” in general denotes ˜4-fold differences in potency; “+++” vs. “++” vs. “+” in general denotes ˜4-fold differences in potency; “+++” vs. “++” vs. “+” in general denotes ˜4-fold differences in potency; “−” denotes no activity at any dose tested, up to 1000× the effective dose of halofuginone; details: spreading of cells assessed by light microscopy 28 hours after treatment
Description: The ability of halofuginone and analogs thereof to inhibit the spreading of freshly plated primary dermal fibroblasts was examined. Human primary dermal fibroblasts were replated and halofuginone added immediately after replating; spreading of cells was assessed by light microscopy 28 hours after treatment with compound. “+++” vs. “++” vs. “+” in general denotes ˜4-fold differences in potency. “−” denotes no activity at any dose tested, up to 1000× the effective dose of halofuginone.

[6] = tested on: Differentiation of primary naïve T-cells into Th17 cells; test: Inhibition of Th17 differentiation of primary naïve T-cells by halofuginone analogs; assay type: cell-based, murine; set-up: key: “+++” vs. “++” vs. “+” in general denotes ˜4-fold differences in potency; “+++” vs. “++” vs. “+” in general denotes ˜4-fold differences in potency; “+++” vs. “++” vs. “+” in general denotes ˜4-fold differences in potency; “−” denotes no activity at any dose tested, up to 1000× the effective dose of halofuginone; details: T-cell receptor stimulation+IL-6+TGFb
Description: Naïve T-cells were stimulated to differentiate in the presence or absence of 10 nM halofuginone, with 1 mM of the indicated amino acids added to the medium, and stained for Th17 differentiation on day 4. Naïve murine T cells were activated in the presence or absence of TGFβ plus IL-6 as indicated, expanded in for 4 days and restimulated with PMA and ionomycin for intracellular cytokine staining. […] Bars indicate percentage of cells differentiation as Th17 as indicated by IL17 expression.
The effect of different halofuginone and analogs thereof on differentiation of naïve T-cells was assayed as described in legend for FIG. 4 above. Differentiation of primary naïve T-cells into Th17 cells following T-cell receptor stimulation+IL-6+TGFb. “+++” vs. “++” vs. “+” in general denotes ˜4-fold differences in potency. “−” denotes no activity at any dose tested, up to 1000× the effective dose of halofuginone.

Translational inhibition [4]	Molecule	inhibition of Th17 differentiation / IL-17 expression (in words) [2]	Fibroblast inhibition [5]	other results
	C[C@@H]1C[C@H](C)C[C@H](C)[C@@H](O)CC(=O)O[C@H]([C@@H]2CCC[C@H]2C(=O)O)C/C=C/C=C(/C#N)[C@H](O)[C@@H](C)C1 [Borrelidin]	inhibits Th17 differentiation		effect on Th1, Th2, iTreg differentiation [1]: without affecting Th1, Th2, or Treg differentiation or cell number
	N/N=C(/CC1NCCCC1O)Cn1cnc2cc(Br)c(Cl)cc2c1=O (stereo not shown) [MAZ1686]	selectively inhibit the differentiation of Th17 cells		effect on Th1, Th2, iTreg differentiation [1]: without inhibiting Th1 differentiation
	O=C(CC1NCCCC1O)Cn1cnc2cc(Br)c(Cl)cc2c1=O (single isomer, unassigned) [D-enantiomer of HF]	inhibited IL-17 expression more potently than a racemic mixture		
	tunicamycin	had little influence on IL-17 expression in T cells		stress response pathway: eIF2α phosphorylation, ATF4 expression, Xbp-1 splicing ([3]; 10 nM HF or 1 μg/ml tunicamycin): induced eIF2α phosphorylation and ATF4 expression together with Xbp-1 splicing; effect on Th1, Th2, iTreg differentiation [1]: preferentially impaired Th1 and Th2 differentiation
++	CC(=O)N/N=C(/CC1NCCCC1O)Cn1cnc2cc(Br)c(Cl)cc2c1=O (stereo not shown) [Compound 14, (Z)—N′-(1-(7-bromo-6-chloro-4-oxoquinazolin-3(4H)-yl)-3-((2S/R,3R/S)-3-hydroxypiperidin-2-yl)propan-2-ylidene)acetohydrazide]			
	O=C(CC1NCCCC1O)Cn1cnc2cc(Br)c(Cl)cc2c1=O (single isomer, unassigned) [L-enantiomer]	completely inactive		
	C#Cc1cc2ncn(CC(=O)CC3NCCCC3O)c(=O)c2cc1Cl (stereo not shown) [MAZ1320]	selectively inhibit the differentiation of Th17 cells		effect on Th1, Th2, iTreg differentiation [1]: without inhibiting Th1 differentiation
++	COC(=O)CCCCC(=O)N/N=C(/CC1NCCCC1O)Cn1cnc2cc(Br)c(Cl)cc2c1=O (stereo not shown) [Compound 12, methyl 6-((Z)-2-(1-(7-bromo-6-chloro-4-oxoquinazolin-3(4H)-yl)-3-((2S/R,3R/S)-3-hydroxypiperidin-2-yl)propan-2-ylidene)hydrazinyl)-6-oxohexanoate]		++	
	N[C@H](CO)Cc1c[nH]c2ccccc12 [L-tryptophanol]	impaired IL-17 production		inhibition of Th17 differentiation / IL-17 expression (in words) ([2]; listed as tryptophanol): inhibited Th17 differentiation
++	N-(6-((Z)-2-(1-(7-bromo-6-chloro-4-oxoquinazolin-3(4H)-yl)-3-((2S/R,3R/S)-3-hydroxypiperidin-2-yl)propan-2-ylidene)hydrazinyl)-6-oxohexyl)-6-(5-(2-oxohexahydro-1H-thieno[3,4-d]imidazol-4-yl)pentanamido)hexanamide [Compound 13]		++	Inhibition of Th17 differentiation [6]: ++
+++	C#Cc1cc2ncn(CC(=O)CC3NCCCC3O)c(=O)c2cc1Cl (stereo not shown) [Compound 7, 6-chloro-7-ethynyl-3-(3-((2S/R,3R/S)-3-hydroxypiperidin-2-yl)-2-oxopropyl)quinazolin-4(3H)-one]		+++	Inhibition of Th17 differentiation [6]: +++
+	NCCOCCOCCNC(=O)CCCC#Cc1cc2ncn(CC(=O)CC3NCCCC3O)c(=O)c2cc1Cl (stereo not shown) [Compound 8, N-(2-(2-(2-aminoethoxy)ethoxy)ethyl)-6-(6-chloro-3-(3-((2S/R,3R/S)-3-hydroxypiperidin-2-yl)-2-oxopropyl)-4-oxo-3,4-dihydroquinazolin-7-yl)hex-5-ynamide]		+	
−	CC(C)(C)OC(=O)N1CCCC(O)C1CC(=O)Cn1cnc2cc(Br)c(Cl)cc2c1=O (stereo not shown) [Compound 9, (2S/R,3R/S)-tert-butyl 2-(3-(7-bromo-6-chloro-4-oxoquinazolin-3(4H)-yl)-2-oxopropyl)-3-hydroxypiperidine-1-carboxylate]		−	phosphorylation of Ser51 of eIF2alpha, GCN2 dependence ([3]; 10 nM, T cells from wild type or GCN2−/− mice): inactive; Inhibition of Th17 differentiation [6]: −
	C[Si](C)(C)C#Cc1cc2ncn(CC(=O)CC3NCCCC3O)c(=O)c2cc1Cl (stereo not shown) [Compound 5, 6-chloro-3-(3-((2S/R,3R/S)-3-hydroxypiperidin-2-yl)-2-oxopropyl)-7-((trimethylsilyl)ethynyl)quinazolin-4(3H)-one]		++	

Molecule	Translational inhibition [4]	inhibition of Th17 differentiation / IL-17 expression (in words) [2]	Fibroblast inhibition [5]	other results
O=C(CC1NCCCC1O)Cn1cnc2ccccc2c1=O (stereo not shown) [Compound 3, febrifugine]	++		++	Inhibition of Th17 differentiation [6]: ++
CCOP(=O)(OCC)OC1CCCNC1CC(=O)Cn1cnc2cc(Br)c(Cl)cc2c1=O (stereo not shown) [Compound 16, (2S/R,3R/S)-2-(3-(7-bromo-6-chloro-4-oxoquinazolin-3(4H)-yl)-2-oxopropyl)piperidin-3-yl diethyl phosphate]	−		−	
